Experimental findings from publication PMC6981454, “Promising 2,6,9-Trisubstituted Purine Derivatives for Anticancer Compounds: Synthesis, 3D-QSAR, and Preliminary Biological Assays” (International Journal of Molecular Sciences, 2019) are described below.

What all share (type): cell-based, human
Data set [1] deals with HL-60 cells. Nature of the data set: Annexin-V FITC/PI apoptosis assay by flow cytometry. The settings on record: for Q2 (late apoptosis) cells / Q3 (viable) cells: 24 h. How it is done:
To assess an unequivocal identification of apoptosis, annexin-V FITC is commonly combined with PI to understand if cells are viable, apoptotic, or necrotic through differences in plasma membrane integrity and permeability. To better understand the ability of compound 7h (the lowest IC50 values and high SI) to induce cell death, we performed the annexin-V FITC/PI assay. HL-60 cells were treated with 7h at the dose corresponding to 5 and 50 μM by 24 h, then harvested and stained with annexin-V FITC and PI (Figure 8). […] In addition, Figure 8 illustrates a discrete increase in the apoptosis (Q2 and Q4) from 5 to 50 µM, as well as an increase in necrosis at the concentration of 50 µM.
HL60 cells were seeded into a 12-well plate (5 × 10^5 per well) and incubated in RPMI 1640 […] for 24 h at 37 °C—then, replaced with fresh medium containing the tested compound 7h at indicated concentrations for another 24 h. The cells were collected and then used the Annexin-V/PI Alexa Fluor 488 apoptosis kit (Invitrogen, Carlsbad, CA, USA) according to the instruction of manufacturer to detect the apoptosis cells, which were analyzed by flow cytometry (BD; FACScanto II, Mountain View, CA) and data were processed using FCS Express v6 software. Two independent biological replicates were performed.
On the technique in general: Flow cytometry measures light scatter and fluorescence of single cells or particles in a stream.

The test system of another data set is MRC-5. Put plainly: MTT cytotoxicity assay, 72 h, normal control cells. The settings on record: Homo sapiens, MRC5, IC50 ± SD, normal fibroblasts. The method in brief: (§1)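 Plated cells (1 × 10^4 per well) received test compounds from 0.1 to 100 µM for 72 h in serum-containing medium. After 4 h with 0.5 mg/mL MTT, the dye was dissolved in 10% SDS with 0.1 mM HCl overnight and measured at 570 nm.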

The test system of another data set is CACO2. Put plainly: MTT cytotoxicity assay, 72 h. The settings on record: Homo sapiens, Caco-2, IC50 ± SD.
Another data set relates to NCI-H460. Nature of the data set: MTT cytotoxicity assay, 72 h. In short, it runs like this: as §1
(In general: Formazan colour is commonly taken as a measure of viable cells.)

A further data set has as its system K562. Nature of the data set: MTT cytotoxicity assay, 72 h. In short, it runs like this:
as §1

The subject of another data set is CFPAC-1. Nature of the data set: MTT cytotoxicity assay, 72 h. Particulars: Homo sapiens, CFPAC-1, IC50 ± SD. In short, it runs like this: as §1
The test system of another data set is HL-60. Put plainly: MTT cytotoxicity assay, 72 h. The settings on record: for IC50: Homo sapiens. The method in brief: as §1
For another data set, the system named is MCF-7. Put plainly: MTT cytotoxicity assay, 72 h. The method in brief:
as §1

The subject of a further data set is HCT-116. Put plainly: MTT cytotoxicity assay, 72 h. The settings on record: Homo sapiens, HCT-116, IC50 ± SD. The method in brief:
as §1

The subject of data set [2] is HL-60 cells. Put plainly: Cell viability by propidium iodide flow cytometry. The settings on record: HL-60, 50 μM, 24 h, PI staining.

Each structure is given as a SMILES string. Where two headings read alike, the source gives them in different places.

For `O=[N+]([O-])c1ccc(N2CCN(c3nc(Cl)nc4c3ncn4C3CCCC3)CC2)cc1` [7h, 2-Chloro-9-cyclopentyl-6-(4-(4-nitrophenyl)piperazin-1-yl)-9H-purine], the “Q2 (late apoptosis) cells” value in the data set on HL-60 cells [1] (HL-60, 5 μM) is reported as 36.5%; with HL-60 cells [1] (HL-60, 50 μM), 37.7%. Moreover, the “Q3 (viable) cells” value in the data set on HL-60 cells [1] (HL-60, 5 μM, 5 µM) is recorded as about 55%; with HL-60 cells [1] (HL-60, 50 μM, 50 µM) it was 38%. The viability at 5 µM in the data set with HL-60 cells [1] (Homo sapiens, HL-60, 24 h, HL-60, 5 μM, read-out: Q3 (viable) cells) was determined as 55.2%. In the data set with HL-60 cells [1] (Homo sapiens, HL-60, 24 h, HL-60, 50 μM, read-out: Q3 (viable) cells), the viability at 50 µM came out at 37.8%. In addition, the IC50 in the data set on MRC-5 was over 100 µM; in the data set on CACO2, over 100 µM; in the data set on NCI-H460 (Homo sapiens, NCI-H460, 72 h, MTT, 72 h, IC50 ± SD, read-out: IC50 NCI-H460) it was 1.3 µM; in the data set on NCI-H460 (Homo sapiens, NCI-H460, -logIC50 in molar concentration, Table S2, read-out: Experimental pIC50 (NCI-H460) (converted)), 1.31 µM; in the data set with NCI-H460 (MTT, 72 h, IC50 ± SD, read-out: IC50 NCI-H460), 1.31 ± 0.07 µM; in the data set with K562 (Homo sapiens, K562, 72 h, MTT, 72 h, IC50 ± SD), 1.02 ± 0.04 µM. In addition, the IC50 is over 100 µM with CFPAC-1; 0.4 ± 0.01 µM in the data set on HL-60 (HL-60, 72 h, MTT, 72 h, IC50 ± SD, read-out: IC50 HL-60); 0.4 µM in the data set with HL-60 (HL-60, -logIC50 in molar concentration, Table S1, read-out: Experimental pIC50 (HL-60) (converted)); 1.55 ± 0.34 µM in the data set with MCF-7 (MTT, 72 h, IC50 ± SD); 30 ± 7.1 µM in the data set with HCT-116. Besides, the “Selectivity Index (SI) MRC-5/NCI-H460” value with NCI-H460 (IC50 in MRC-5 / IC50 in NCI-H460) is given as over 76.3. Also, the “Selectivity Index (SI) MRC-5/K562” value with K562 (IC50 in MRC-5 / IC50 in K562) is reported as over 98. Besides, the “Selectivity Index (SI) MRC-5/HL-60” value in the data set on HL-60 (IC50 in MRC-5 / IC50 in HL-60) is given as over 250. For the same compound, the “Selectivity Index (SI) MRC-5/MCF-7” value in the data set on MCF-7 (IC50 in MRC-5 / IC50 in MCF-7) was over 64.5. Further, the apoptotic cells in the data set with HL-60 cells [2] is reported as about 30%.
